Data published in patent US11964960B2 (Cornell University, priority 2018, dated 2024).
Where a name gives a salt, the structure may show the parent alone.

biological target: T1, S1P2 (Homo sapiens, UniProt O95136); assay: GLISA RhoA activation - antagonist assay; type: cell-based; details: 1 μM compound, CHO-S1P2-FL cells
T1 construct: Flag; expressed in transfected cells; host or cells: Chinese hamster ovary (CHO) cells, doxycycline-inducible (CHO-S1P2-FL / CHO-S1PR2 FL)
Protocol: GLISA RhoA Activation—Antagonist Assay
GLISA assays were performed using RhoA (BK124) activation kit purchased from Cytoskeleton Inc., Denver, CO Doxycycline-inducible Flag-tag S1P2 expressing Chinese hamster ovary (CHO) cells (CHO-S1P2-FL) were seeded in a 6-well plate, 1.5×10^5 cells per well. Cells were stimulated with […] of Doxycycline to induce S1P2 expression in serum free IMDM media with 0.1% BSA/PBS. Following day, cells were stimulated with the compounds described herein (1 nM-10 μM) or 1 μM JTE-013 for 1 hour at 37° C. Following compound incubation, cells were washed with PBS×3 and induced with 100 nM […] for 5 min. […] Protein concentration was examined using GLISA—Precision Red Advanced Protein assay reagent as described in assay manual. Lysates were immobilized on GTP-bound capture plate and GLISA assay was performed based on manufacture recommendations as reported previously.

T1 sequence (O95136 whole entry, species assumed): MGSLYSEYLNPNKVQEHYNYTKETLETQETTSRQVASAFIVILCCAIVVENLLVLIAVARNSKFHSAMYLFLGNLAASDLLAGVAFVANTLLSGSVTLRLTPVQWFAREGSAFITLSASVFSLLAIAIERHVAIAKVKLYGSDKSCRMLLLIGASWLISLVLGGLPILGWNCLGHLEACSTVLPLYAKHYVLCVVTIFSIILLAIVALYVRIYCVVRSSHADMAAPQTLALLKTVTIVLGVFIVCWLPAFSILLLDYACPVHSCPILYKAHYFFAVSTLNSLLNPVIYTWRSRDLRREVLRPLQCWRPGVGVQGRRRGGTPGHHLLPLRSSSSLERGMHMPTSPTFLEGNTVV

Row | Compound | inhibition at 1 µM
1 | Cc1cc(C(=O)C(C)n2cc(Br)ccc2=O)c(C)n1CC1CCOCC1 (stereo not drawn) [Compound 10, 5-bromo-1-(1-(2,5-dimethyl-1-((tetrahydro-2H-pyran-4-yl)methyl)-1H-pyrrol-3-yl)-1-oxopropan-2-yl)pyridin-2(1H)-one] | 39%
2 | Cc1cc(C(=O)C(C)n2cc(Br)ccc2=O)c(C)n1Cc1ccccc1 (stereo not drawn) [Compound 4, 1-(1-(1-benzyl-2,5-dimethyl-1H-pyrrol-3-yl)-1-oxopropan-2-yl)-5-bromopyridin-2(1H)-one] | 86%
3 | Cc1cc(C(=O)Cn2cc(Br)ccc2=O)nn1Cc1ccc(F)cc1 [Example 68, 5-Bromo-1-(2-(1-(4-fluorobenzyl)-5-methyl-1H-pyrazol-3-yl)-2-oxoethyl)pyridin-2(1H)-one] | 18%
4 | Cc1ccc(Cn2c(C)cc(C(=O)C(C)n3cc(Br)ccc3=O)c2C)cc1 (stereo not drawn) [Example 65, 5-Bromo-1-(1-(2,5-dimethyl-1-(4-methylbenzyl)-1H-pyrrol-3-yl)-1-oxopropan-2-yl)pyridin-2(1H)-one] | 11%
5 | Cc1nc(C(=O)Cn2cc(Br)ccc2=O)c(C)n1Cc1ccc(F)cc1 [Compound 30, 5-bromo-1-(2-(1-(4-fluorobenzyl)-2,5-dimethyl-1H-imidazol-4-yl)-2-oxoethyl)pyridin-2(1H)-one] | 64%
6 | Cc1cc(C(=O)C(C)n2cc(Br)ccc2=O)c(C)n1Cc1cccc(C(=O)O)c1 (stereo not drawn) [Compound 23, 3-((3-(2-(5-bromo-2-oxopyridin-1(2H)-yl)propanoyl)-2,5-dimethyl-1H-pyrrol-1-yl)metnyl)benzoic add] | 69%
7 | Cc1cc(C(=O)C(C)n2cc(Br)ccc2=O)c(C)n1Cc1ccccc1C#N (stereo not drawn) [Compound 17, 2-((3-(2-(5-bromo-2-oxopyridin-1(2H)-yl)propanoyl)-2,5-dimethyl-1H-pyrrol-1-yl)methyl)benzonitrile] | 63%
8 | COC(=O)c1ccc(=O)n(CC(=O)c2cc(C)n(Cc3ccccc3)c2C)c1 [Example 90] | < 10%
9 | Cc1cc(C(=O)C(C)n2cc(Br)ccc2=O)c(C)n1Cc1ccc(C#N)cc1 (stereo not drawn) [Compound 16, 4-((3-(2-(5-bromo-2-oxopyridin-1(2H)-yl)propanoyl)-2,5-dimethyl-1H-pyrrol-1-yl)methyl)benzonitrile] | 39%
10 | Cc1cc(C(=O)C(C)n2cc(Br)ccc2=O)c(C)n1Cc1ccccc1F (stereo not drawn) [Compound 19, 5-bromo-1-(1-(1-(2-fluorobenzyl)-2,5-dimethyl-1H-pyrrol-3-yl)-1-oxopropan-2-yl)pyridin-2(1H)-one] | 44%
11 | Cc1cc(C(=O)C(C)n2cc(Br)ccc2=O)c(C)n1Cc1cccc(C(F)F)c1 (stereo not drawn) [Compound 21, 5-bromo-1-(1-(1-(3-(difluoromethyl)benzyl)-2,5-dimethyl-1H-pyrrol-3-yl)-1-oxopropan-2-yl)pyridin-2(1H)-one] | 42%
12 | COc1cccc(Cn2c(C)cc(C(=O)C(C)n3cc(Br)ccc3=O)c2C)c1 (stereo not drawn) [Example 60, 5-Bromo-1-(1-(1-(3-methoxybenzyl)-2,5-dimethyl-1H-pyrrol-3-yl)-1-oxopropan-2-yl)pyridin-2(1H)-one] | < 10%
13 | Cc1cc(C(=O)C(C)n2cc(Br)ccc2=O)c(C)n1Cc1cccc(Cl)c1 (stereo not drawn) [Compound 22, 5-bromo-1-(1-(1-(3-chlorobenzyl)-2,5-dimethyl-1H-pyrrol-3-yl)-1-oxopropan-2-yl)pyridin-2(1H)-one] | 73%
14 | Cc1cc(C(=O)C(C)n2cc(Br)ccc2=O)c(C)n1CC1CCC1 (stereo not drawn) [Example 59, 5-Bromo-1-(1-(1-(cyclobutylmethyl)-2,5-dimethyl-1H-pyrrol-3-yl)-1-oxopropan-2-yl)pyridin-2(1H)-one] | < 10%
15 | Cc1cc(C(=O)C(C)n2cc(Br)ccc2=O)c(C)n1Cc1cccc(S(C)(=O)=O)c1 (stereo not drawn) [Compound 14, 5-bromo-1-(1-(2,5-dimethyl-1-(3-(methylsulfonyl)benzyl)-1H-1-pyrrol-3-yl)-1-oxopropan-2-yl)pyridin-2(1H)-one] | 35%
16 | Cc1cc(C(=O)Cn2cc(C#N)ccc2=O)c(C)n1CCc1ccccc1 [Example 91, 1-(2-(2,5-Dimethyl-1-phenethyl-1H-pyrrol-3-yl)-2-oxoethyl)-6-oxo-1,6-dihydropyridine-3-carbonitrile] | 12%
17 | Cc1nnc(Cn2c(C)cc(C(=O)C(C)n3cc(Br)ccc3=O)c2C)o1 (stereo not drawn) [Example 57, 5-Bromo-1-(1-(2,5-dimethyl-1-((5-methyl-1,3,4-oxadiazol-2-yl)methyl)-1H-pyrrol-3-yl)-1-oxopropan-2-yl)pyridin-2(1H)-one] | 10%
18 | Cc1cc(C(=O)C(C)n2cc(Br)ccc2=O)c(C)n1Cc1cnn(C)c1 (stereo not drawn) [Compound 8, 5-bromo-1-(1-(2,5-dimethyl-1-((1-methyl-1H-pyrazol-4-yl)methyl)-1H-pyrrol-3-yl)-1-oxopropan-2-yl)pyridin-2(1H)-one] | 20%
19 | COc1ccc(Cn2c(C)cc(C(=O)C(C)n3cc(Br)ccc3=O)c2C)cc1 (stereo not drawn) [Example 61, 5-Bromo-1-(1-(1-(4-methoxybenzyl)-2,5-dimethyl-1H-pyrrol-3-yl)-1-oxopropan-2-yl)pyridin-2(1H)-one] | 18%
20 | Cc1cc(Cn2c(C)cc(C(=O)C(C)n3cc(Br)ccc3=O)c2C)no1 (stereo not drawn) [Compound 9, 5-bromo-1-(1-(2,5-dimethyl-1-((5-methylisoxazol-3-yl)methyl)-1H-pyrrol-3-yl)-1-oxopropan-2-yl)pyridin-2(1H)-one] | 32%
21 | Cc1cc(C(=O)Cn2cc(Br)ccc2=O)c(C)n1Cc1ccc(F)cc1 [Compound 28, 5-bromo-1-(2-(1-(4-fluorobenzyl)-2,5-dimethyl-1H-pyrrol-3-yl)-2-oxoethyl)pyridin-2(1H)-one] | 58%
22 | Cc1cc(C(=O)Cn2cc(C#N)ccc2=O)c(C)n1Cc1ccc2c(c1)OCO2 [Example 93, 1-(2-(1-(Benzo[d][1,3]dioxol-5-ylmethyl)-2,5-dimethyl-1H-pyrrol-3-yl)-2-oxoethyl)-6-oxo-1,6-dihydropyridine-3-carbonitrile] | 10%

same assay, conditions: CHO-S1P2-FL cells, 1 hour compound incubation, then for 5 min

Row | Compound | IC50
23 | Cc1cc(C(=O)C(C)n2cc(Br)ccc2=O)c(C)n1Cc1ccccc1 (stereo not drawn) [Compound 4, 1-(1-(1-benzyl-2,5-dimethyl-1H-pyrrol-3-yl)-1-oxopropan-2-yl)-5-bromopyridin-2(1H)-one] | 26 nM
24 | Cc1nc(C(=O)Cn2cc(Br)ccc2=O)c(C)n1Cc1ccc(F)cc1 [Compound 30, 5-bromo-1-(2-(1-(4-fluorobenzyl)-2,5-dimethyl-1H-imidazol-4-yl)-2-oxoethyl)pyridin-2(1H)-one] | 595 nM
25 | Cc1cc(C(=O)C(C)n2cc(Br)ccc2=O)c(C)n1Cc1cccc(C(=O)O)c1 (stereo not drawn) [Compound 23, 3-((3-(2-(5-bromo-2-oxopyridin-1(2H)-yl)propanoyl)-2,5-dimethyl-1H-pyrrol-1-yl)metnyl)benzoic add] | 297 nM
26 | Cc1c(C(=O)Cn2cc(Br)cnc2=O)cnn1Cc1ccccc1 [Example 56, 1-(2-(1-Benzyl-5-methyl-1H-pyrazol-4-yl)-2-oxoethyl)-5-bromopyrimidin-2(1H)-one] | 200 nM
27 | Cc1cc(C(=O)C(C)n2cc(C#N)ccc2=O)c(C)n1Cc1ccccc1 (stereo not drawn) [Example 52, 1-(1-(1-Benzyl-2,5-dimethyl-1H-pyrrol-3-yl)-1-oxopropan-2-yl)-6-oxo-1,6-dihydropyridine-3-carbonitrile] | > 10000 nM
28 | Cc1cc(C(=O)C(Cc2ccc(-c3ccccc3)cc2)n2cc(C#N)ccc2=O)c(C)[nH]1 (stereo not drawn) [Example 48, 1-(3-((1,1′-Biphenyl)-4-yl)-1-(2,5-dimethyl-1H-pyrrol-3-yl)-1-oxopropan-2-yl)-6-oxo-1,6-dihydropyridine-3-carbonitrile] | > 10000 nM
29 | Cc1cc(C(=O)C(C)n2cc(Br)ccc2=O)c(C)n1Cc1cccc(Cl)c1 (stereo not drawn) [Compound 22, 5-bromo-1-(1-(1-(3-chlorobenzyl)-2,5-dimethyl-1H-pyrrol-3-yl)-1-oxopropan-2-yl)pyridin-2(1H)-one] | 793 nM
30 | Cc1c(C(=O)Cn2nc(Br)ccc2=O)cnn1Cc1ccccc1 [Example 55, 2-(2-(1-Benzyl-5-methyl-1H-pyrazol-4-yl)-2-oxoethyl)-6-bromopyridazin-3(2H)-one] | 110 nM
31 | C=C(c1ccc(=O)n(CC(=O)c2cnn(Cc3ccccc3)c2C)c1)C(F)(F)F [Example 84, 1-(2-(1-Benzyl-5-methyl-1H-pyrazol-4-yl)-2-oxoethyl)-5-(3,3,3-trifluoroprop-1-en-2-yl)pyridin-2(1H)-one] | 43 nM
32 | Cc1c(C(=O)Cn2cc(C#N)cc(C#N)c2=O)cnn1Cc1ccccc1 [Example 69, 1-(2-(1-Benzyl-5-methyl-1H-pyrazol-4-yl)-2-oxoethyl)-2-oxo-1,2-dihydropyridine-3,5-dicarbonitrile] | 50 nM
33 | C=Cc1ccc(=O)n(C(C)C(=O)c2cnn(Cc3ccccc3)c2C)n1 (stereo not drawn) [Example 76, 2-(1-(1-Benzyl-5-methyl-1H-pyrazol-4-yl)-1-oxopropan-2-yl)-6-vinylpyridazin-3(2H)-one] | 130 nM
34 | C=Cc1ccc(=O)n(CC(=O)c2cnn(Cc3ccccc3)c2C(F)(F)F)c1 [Example 82, 1-(2-(1-Benzyl-5-(trifluoromethyl)-1H-pyrazol-4-yl)-2-oxoethyl)-5-vinylpyridin-2(1H)-one] | 74 nM
35 | C=Cc1ccc(=O)n(CC(=O)c2cnn(Cc3ccccc3)c2C(F)F)c1 [Example 87, 1-(2-(1-Benzyl-5-(difluoromethyl)-1H-pyrazol-4-yl)-2-oxoethyl)-5-vinylpyridin-2(1H)-one] | 107 nM
36 | O=c1ccc(Br)cn1Cc1nccc2c1cnn2Cc1ccccc1 [Compound 130, 1-((1-Benzyl-1H-pyrazolo[4,3-c]pyridin-4-y)methyl)-5-bromopyridin-2(1H)-one hydrochloride] | 140 nM
37 | C=Cc1ccc(=O)n(CC(=O)c2cnn(Cc3ccccc3)c2CC)c1 [Example 85, 1-(2-(1-Benzyl-5-ethyl-1H-pyrazol-4-yl)-2-oxoethyl)-5-vinylpyridin-2(1H)-one] | 108 nM
38 | Cc1cc(C(=O)Cn2cc(C(C)(C)C)ccc2=O)c(C)n1Cc1ccccc1 [Example 53, 1-(2-(1-Benzyl-2,5-dimethyl-1H-pyrrol-3-yl)-2-oxoethyl)-5-(tert-butyl)pyridin-2(1H)-one] | > 10000 nM
39 | Cc1cc(C(=O)Cn2cc(C(=O)O)ccc2=O)c(C)n1Cc1ccccc1 [Example 46, 1-(2-(1-Benzyl-2,5-dimethyl-1H-pyrrol-3-yl)-2-oxoethyl)-6-oxo-1,6-dihydropyridine-3-carboxylic Acid] | > 10000 nM
